This is an account of results in patent US20050124660A1, “Novel medical uses of compounds showing CB1-antagonistic activity and combination treatment involving said compounds” (priority 2003, published 2005).

Read-outs that look alike come from different tables or passages of the source.

Data set [1] has as its target T1, porcine pancreatic lipase (Sus scrofa, UniProt P00591).
T1 sequence (P00591 1-450): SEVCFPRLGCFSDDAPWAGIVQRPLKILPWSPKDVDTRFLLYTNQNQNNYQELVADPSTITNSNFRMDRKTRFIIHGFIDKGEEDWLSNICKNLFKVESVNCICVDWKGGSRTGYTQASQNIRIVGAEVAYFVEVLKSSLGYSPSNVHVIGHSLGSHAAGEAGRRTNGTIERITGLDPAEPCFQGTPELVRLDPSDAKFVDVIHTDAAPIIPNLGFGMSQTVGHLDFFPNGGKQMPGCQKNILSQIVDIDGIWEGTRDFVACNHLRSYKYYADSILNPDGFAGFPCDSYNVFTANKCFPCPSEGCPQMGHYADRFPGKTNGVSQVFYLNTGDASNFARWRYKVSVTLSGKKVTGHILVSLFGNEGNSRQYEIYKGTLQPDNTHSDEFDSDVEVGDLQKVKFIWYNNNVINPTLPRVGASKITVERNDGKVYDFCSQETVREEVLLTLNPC
The settings on record: cited from earlier work; for inhibitory activity, fold stronger than that of THL: porcine pancreatic lipase, relative to THL; for IC50: read-out: IC50 for inhibition of hydrolysis of triolein by porcine pancreatic lipase.

The next data set deals with plasma lipases. Conditions: cited from earlier work; for IC50: read-out: IC50 for inhibition of plasma lipases.
Data set [2] relates to bacterial and fungal lipases. Conditions: cited from earlier work.
For data set [3], the target named is T2, human cannabis CB1 receptor (Homo sapiens, UniProt P21554).
T2 construct: expressed in transfected cells; host or cells: Chinese hamster ovary (CHO) cells, stably transfected; membrane preparation
T2 sequence (P21554 whole entry): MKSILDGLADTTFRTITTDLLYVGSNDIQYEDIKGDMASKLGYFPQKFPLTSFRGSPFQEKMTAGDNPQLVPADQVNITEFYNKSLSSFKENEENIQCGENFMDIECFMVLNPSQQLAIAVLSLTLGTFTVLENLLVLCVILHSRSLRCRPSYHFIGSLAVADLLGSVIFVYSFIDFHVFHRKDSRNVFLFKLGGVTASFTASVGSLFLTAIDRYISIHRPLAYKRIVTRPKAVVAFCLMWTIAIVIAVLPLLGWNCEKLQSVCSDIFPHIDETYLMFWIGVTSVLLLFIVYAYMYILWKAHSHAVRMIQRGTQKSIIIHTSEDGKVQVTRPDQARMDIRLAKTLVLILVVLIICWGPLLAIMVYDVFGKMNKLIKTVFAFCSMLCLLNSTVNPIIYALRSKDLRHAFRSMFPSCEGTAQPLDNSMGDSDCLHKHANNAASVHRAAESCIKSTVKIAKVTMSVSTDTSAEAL
Nature of the data set: In vitro affinity for cannabinoid CB1 receptors, [3H]CP-55,940 radioligand, CHO cell membrane preparations. In kind it is binding. The method, then:
After incubation of a freshly prepared cell membrane preparation with the [3H]-ligand, with or without addition of compounds of the invention, separation of bound and free ligand was performed by filtration over glass fibre filters. Radioactivity on the filter was measured by liquid scintillation counting.

The target in data set [4] is T3, human cannabinoid CB1 receptors (Homo sapiens, UniProt P21554).
T3 construct: expressed in transfected cells
T3 sequence (P21554 whole entry): as above
The experiment in a line: In vitro CB1 antagonism, functional studies in CHO cells expressing human CB1 receptor. In kind it is cell-based. How it is done: The cannabinoid CB1 antagonistic activity of compounds of the formulas (I), (II), III), (IV) or (V) is also described in the WO 03/026647, WO 03/027076, WO 03/026648 or WO 03/078413, and was determined by functional studies using CHO cells in which human cannabinoid CB1 receptors are stably expressed. Adenylyl cyclase was stimulated using forskolin and measured by quantifying the amount of accumulated cyclic AMP. Concomitant activation of CB1 receptors by CB1 receptor agonists (e.g. CP-55,940 or (R)-WIN-55,212-2) can attenuate the forskolin-induced accumulation of cAMP in a concentration-dependent manner. This CB1 receptor-mediated response can be antagonized by CB1 receptor antagonists such as the compounds used in the present invention.
The cannabinoid CB1 receptor antagonistic, agonistic or partial agonistic activity of compounds e.g. formula (V) of the invention can be also determined by functional studies using the human CB1 receptor cloned in Chinese hamster ovary (CHO) cells according to the following protocol. CHO cells were grown in a DMEM culture medium, supplemented with 10% heat-inactivated fetal calf serum. Medium was aspirated and replaced by DMEM, without fetal calf serum, but containing [^3H]-Arachidonic acid and incubated overnight in a cell culture stove (5% CO2/95% air; 37° C.; water-saturated atmosphere). During this period [^3H]-Arachidonic acid was incorporated in membrane phospholipids. On the test day, medium was aspirated and cells were washed three times using 0.5 ml phosphate-buffered saline, containing 0.2% bovine serum albumin. Stimulation of the CB1 receptor by WIN 55,212-2 led to activation of PLA2 followed by release of [^3H]-Arachidonic acid into the medium. This WIN 55,212-2-induced release was concentration-dependently antagonized by CB1 receptor antagonists.

The conditions of data set [5]: patients on atypical antipsychotics; cited from earlier work.
In another data set the test system is DTH response. Conditions: mice, 0.781-50 mg/kg (i.p.) or 0.5 mg/kg (per os); cited from earlier work.
In data set [6] the test system is carragheenin-induced swelling. The settings on record: mice; cited from earlier work.
The conditions of data set [7]: 120 mg tid, 5 days; placebo 1.4 g/day; cited from earlier work.
Setting [8] is: Human cannabinoid-CB1 receptors, read-out: In vitro affinity pK1 value (converted).

In the case of `CCCCCCCCCCCC[C@@H]1C(=O)O[C@H]1C[C@H](CCCCCCC)OC(=O)CNC=O` [Panclicin E], in data set [1], the “irreversibility of pancreatic lipase inhibition” value is recorded as “irreversibly inhibit pancreatic lipase”; the “inhibitory activity, fold stronger than that of THL” value is 2 fold; the IC50 (as a rule, the point on the concentration scale where inhibition reaches its midpoint) is 890 nM. Also, in the data set on plasma lipases, the IC50 was 150 nM. Besides, the “inhibition of bacterial and fungal lipases” value in data set [2] is on record as “profiles similar to those for porcine pancreatic lipase”.
Regarding `Cl.O=C(NN1CCCCC1)c1nc(-c2ccc(Cl)cc2)n(-c2ccc(Cl)cc2Cl)n1`, the melting point (usually the temperature of the solid-liquid transition) is 238 to 240 °C (dec.).
The same measure, in the same setting: with `CC(C)(C)ONC(=O)c1nc(-c2ccc(Cl)cc2)n(-c2ccc(Cl)cc2Cl)n1` the figure was 150 to 152 °C.
In the case of `CCCCCCC[C@@H](C[C@@H]1OC(=O)[C@H]1CCCCCCCC(C)C)OC(=O)CNC=O` [Panclicin C], in data set [1], the “irreversibility of pancreatic lipase inhibition” value is “irreversibly inhibit pancreatic lipase”; the “inhibitory activity, fold stronger than that of THL” value is 2 fold; the IC50 was 620 nM. For the same compound, the IC50 in the data set on plasma lipases was 290 nM. Also, the “inhibition of bacterial and fungal lipases” value in data set [2] is “profiles similar to those for porcine pancreatic lipase”.
Turning to `O=C(NC1CCCCC1)c1nc(-c2ccc(Cl)cc2)n(-c2ccc(Cl)cc2Cl)n1` [Example 3, 5-(4-Chlorophenyl)-N-cyclohexyl-1-(2,4-dichlorophenyl)-1H-1,2,4-triazole-3-carboxamide], the melting point lay in the range of 186 to 188 °C. Besides, the Ki in [3] (setting [8]) was 126 nM. Besides, in data set [4], the Kb (commonly the affinity of an antagonist, worked out from how it opposes an agonist) was 2 nM.
Compound `O=C(NN1CCCCC1)c1nc(-c2ccccn2)n(-c2ccc(Cl)cc2Cl)n1` [Example 13, 1-(2,4-Dichlorophenyl)-5-(pyridin-2-yl)-N-(piperidin-1-yl)-1H-1,2,4-triazole-3-carboxamide] showed a melting point of 191 to 193 °C.
In the case of `CCCCCCC[C@@H](C[C@@H]1OC(=O)[C@H]1CCCCCCCC(C)C)OC(=O)[C@H](C)NC=O` [Panclicin A], in [1], the “irreversibility of pancreatic lipase inhibition” value was “irreversibly inhibit pancreatic lipase” and the IC50 is 2900 nM. Also, the 50% inhibitory concentration (IC50) with plasma lipases was 1000 nM. Further, the “potency on plasma lipases compared with THL” value in the data set with plasma lipases (relative to THL) is recorded as “same potency as THL”. Besides, the “inhibition of bacterial and fungal lipases” value in data set [2] is reported as “profiles similar to those for porcine pancreatic lipase”.
Consider `Cc1cc2c(s1)Nc1ccccc1N=C2N1CCN(C)CC1` [olanzapine], for which the “weight change with long-term treatment” value in [5] is listed as “largest weight gains”.
`CC[C@@H](C)[C@@H](O)[C@H](C)C(=O)[C@H](C)/C=C(\C)C[C@H](C)[C@@H]1OC(=O)[C@H]1CC` [Ebelactone B]: the “development of DTH response” value with DTH response is recorded as “enhances the development of DTH response”. The carragheenin-induced swelling entry in data set [6] is reported as “reduces carragheenin-induced swelling”.
For the compound `CC[C@@H](C)[C@@H](O)[C@H](C)C(=O)[C@H](C)/C=C(\C)C[C@H](C)[C@@H]1OC(=O)[C@H]1C` [Ebelactone A], in the data set on DTH response, the “development of DTH response” value is on record as “enhances the development of DTH response”.
As to `CCCCCCCCCCC[C@@H](C[C@@H]1OC(=O)[C@H]1CCCCCC)OC(=O)[C@H](CC(C)C)NC=O` [tetrahydrolipstatin, (2S,3S,5S)-5-((S)-2-4-methylvaleryloxy)-2-heyl-3-hydroxy-hexadecanoic acid lactone], the “fat excreted, average” value in [7] is on record as 5.6 (+1-3.8) g/day.
Take `Cc1nc2n(c(=O)c1CCN1CCC(c3noc4cc(F)ccc34)CC1)CCCC2` [Risperidone]: the “weight change with long-term treatment” value in data set [5] is on record as “modest weight changes that are not dose related”.
As to `Cl.O=C(NN1CCCC1)c1nc(-c2ccc(Cl)cc2)n(-c2ccc(Cl)cc2Cl)n1` [Example 2, 5-(4-Chlorophenyl)-1-(2,4-dichlorophenyl)-N-(pyrrolidin-1-yl)-1H-1,2,4-triazole-3-carboxamide hydrochloride], the melting point is 248 to 255 °C (dec.). Further, the Ki in data set [3] (setting [8]) was 251 nM. The same compound showed an antagonist dissociation constant (Kb) in data set [4] of 63.1 nM.
For the compound `OCCOCCN1CCN(C2=Nc3ccccc3Sc3ccccc32)CC1` [quetiapine], in data set [5], the “weight change with long-term treatment” value is recorded as “smallest”.
`CCCCCNC(=O)c1nc(-c2ccc(Cl)cc2)n(-c2ccc(Cl)cc2Cl)n1` [Example 5, 5-(4-Chlorophenyl)-1-(2,4-dichlorophenyl)-N-(n-pentyl)-1H-1,2,4-triazole-3-carboxamide] showed a Ki in data set [3] of 126 nM.
The compound `O=C(NN1CCCCC1)c1nc(-c2cccnc2)n(-c2ccc(Cl)cc2Cl)n1` [Example 16, 1-(2,4-Dichlorophenyl)-N-(piperidin-1-yl)-5-(pyridin-3-yl)-1H-1,2,4-triazole-3-carboxamide] registered a melting point of 219 °C.
For the compound `CCCCCCCCCC[C@@H]1C(=O)O[C@H]1C[C@H](CCCCCCC)OC(=O)CNC=O` [Panclicin D], in data set [1], the “irreversibility of pancreatic lipase inhibition” value is “irreversibly inhibit pancreatic lipase”; the “inhibitory activity, fold stronger than that of THL” value was 2 fold; the IC50 was 660 nM. Besides, the IC50 in the data set with plasma lipases was 250 nM. Further, in data set [2], the “inhibition of bacterial and fungal lipases” value is “profiles similar to those for porcine pancreatic lipase”.
In the case of `O=C(NN1CCCCC1)c1nc(-c2ccc(Cl)cc2Cl)n(-c2ccc(C(F)(F)F)cc2)n1` [Example 14, 5-(2,4-Dichlorophenyl)-N-(piperidin-1-yl)-1-(4-(trifluoromethyl)phenyl)-1H-1,2,4-triazole-3-carboxamide], the melting point is 159 to 161 °C.
In [3], `CCCCCNC(=O)c1nc(-c2ccc(Cl)cc2Cl)n(-c2ccc(Cl)cc2)n1` [Example 11, 1-(4-Chlorophenyl)-5-(2,4-dichlorophenyl)-N-(n-pentyl)-1H-1,2,4-triazole-3-carboxamide] showed a Ki of 501 nM.
Take `O=C1Cc2cc(CCN3CCN(c4nsc5ccccc45)CC3)c(Cl)cc2N1` [ziprasidone]: the “weight change with long-term treatment” value in data set [5] is recorded as “smallest”.
For the compound `O=C(NC1CCCCC1)c1nc(-c2ccc(Cl)cc2Cl)n(-c2ccc(Cl)cc2)n1` [Example 9, 1-(4-Chlorophenyl)-N-cyclohexyl-5-(2,4-dichlorophenyl)-1H-1,2,4-triazole-3-carboxamide], in data set [3] (setting [8]), the Ki is 39.8 nM. The compound also gave a Kb in data set [4] of 6.31 nM.
`O=C(NN1CCOCC1)c1nc(-c2ccc(Cl)cc2)n(-c2ccc(Cl)cc2Cl)n1` [Example 6, 5-(4-Chlorophenyl)-1-(2,4-dichlorophenyl)-N-(morpholin-4-yl)-1H-1,2,4-triazole-3-carboxamide] displayed a melting point of 184 to 186 °C.
The same measure, in the same setting: with `Cl.O=C(NN1CCCC1)c1nc(-c2ccc(Cl)cc2Cl)n(-c2ccc(Cl)cc2)n1` the figure was 234 to 236 °C (dec.).
`Cl.O=C(NN1CCOCC1)c1nc(-c2ccc(Cl)cc2Cl)n(-c2ccc(Cl)cc2)n1` showed a melting point of 224 to 226 °C.
